In US12545654B2 (STEMSYNERGY THERAPEUTICS, INC., priority 2020, dated 2026):

tested on: N-myc protein; assay: In-cell immunostaining assay for decrease of N-myc protein level in neuroblastoma cells; format: cell-based; conditions: human neuroblastoma cell lines (Kelly, IMR32, SK-N-BE(2)); treated overnight or up to 3 days; N-myc signal normalized over total protein; read-out: Activity (EC50 for decreasing N-myc protein level)
Procedure: Human neuroblastoma cell lines were obtained from either Millipore Sigma, St. Louis, MO (Kelly cells) or American Type Culture Collection, Manassas, VA (IMR32 and SK-N-BE(2) cells). Cells were cultured in RPMI1640 medium (Corning, New York, NY), supplemented with 10% fetal bovine serum, 100 unit/mL penicillin and 100 μg/mL streptomycin (Corning, New York, NY) at 37 degree Celsius with 5% CO2 in air atmosphere. Cells cultured in flat clear bottom, black 96-well plates (Corning, New York, NY) were treated with different concentrations of a compound of the invention, which was dissolved in the culture media (200 μL/well), overnight or up to 3 days. Cells were fixed with 4% paraformaldehyde (in Phosphate-Buffered Saline or PBS, 100 μL/well) for 30 minutes at room temperature. Cells were briefly washed three times with PBS afterwards, and then treated with PBS containing 0.1% Triton X-100 (100 μL/well) for 30 minutes at room temperature. For […], cells were further treated with PBS containing 0.01% IRDye 700DX NHS Ester (LI-COR Biosciences, Lincoln, NE. 100 μL/well) for 30 minutes at room temperature. Cells were again washed three times with PBS, and then treated with a Tris-buffered saline solution with 0.1% Tween 20 (TBST) and 5% non-fat milk (50 μL/well) for 1 hour at room temperature. Cells were then treated with TBST with 5% non-fat milk (50 μL/well) containing a mouse anti N-Myc antibody (Clone B8.4.B, 1:500 dilution, Santa Cruz Biotechnology, Santa Cruz, CA), or a combination of a rabbit anti-Histone H3 (phospho S10) antibody (Clone EPR17246, 1:10000 dilution, abcam, Cambridge, MA) and a mouse anti-Histone H3 antibody (Clone 1G1, 1:250 dilution, Santa Cruz Biotechnology, Santa Cruz, CA) overnight at 4 degree Celsius in the dark. Cells were washed three times with TBST, and then treated with TBST with 5% non-fat milk (50 μL/well) containing an IRDye 800CW donkey anti-mouse IgG antibody (1:1000 dilution, LI-COR Biosciences, Lincoln, NE) for N-myc staining, or IRDye® 800CW donkey anti-rabbit IgG and IRDye 680RD donkey anti-mouse IgG antibodies (1:1000 dilution, LI-COR Biosciences, Lincoln, NE) for Histone H3 (phospho S10) and Histone H3 staining, incubated for 1 hour at room temperature in the dark. Cells were then washed four times with TBST and the plate was scanned using an Odyssey 9120 Imaging System (LI-COR Biosciences, Lincoln, NE). Signals for N-myc, total protein, Histone H3 (phospho S10), and Histone H3 were obtained from the images using the ImageStudio software (Version 4.0.21, LI-COR Biosciences, Lincoln, NE). Normalized signals for N-myc (over total protein), and Histone H3 (phospho S10) (over Histone H3) were plotted in Prism 7 software (GraphPad Software, San Diego, CA). A four-parameter dose-response curve was fitted using a variable slope model and the EC50 was calculated in Prism 7 software (GraphPad Software, San Diego, CA).

| Molecule | EC50 |
| --- | --- |
| Cc1nc(NC(=O)C2(C(=O)Nc3cc(Cl)cc(C(F)(F)F)c3)CC2)sc1C(=O)Nc1cc(C(F)(F)F)ccc1Cl [SSTA-0251, N-(3-chloro-5-(trifluoromethyl)phenyl)-N-(5-((2-chloro-5-(trifluoromethyl)phenyl)carbamoyl)-4-methylthiazol-2-yl)cyclopropane-1,1-dicarboxamide] | 250 to 1000 nM |
| Cc1nc(NC(=O)C2(C(=O)Nc3cc(F)ccn3)CC2)sc1C(=O)Nc1cc(C(F)(F)F)ccc1Cl [SSTA-0252, N-(5-((2-chloro-5-(trifluoromethyl)phenyl)carbamoyl)-4-methylthiazol-2-yl)-N-(4-fluoropyridin-2-yl)cyclopropane-1,1-dicarboxamide] | > 1000 nM |
| COCc1nc(NC(=O)C2(C(=O)Nc3ccc(Cl)c(F)c3)CC2)sc1C(=O)Nc1cc(C(F)(F)F)ccc1Cl [SSTA-0262, N-(4-chloro-3-fluorophenyl)-N-(5-((2-chloro-5-(trifluoromethyl)phenyl)carbamoyl)-4-(methoxymethyl)thiazol-2-yl)cyclopropane-1,1-dicarboxamide] | 250 to 1000 nM |
| O=C(Nc1cc(C(F)(F)F)ccc1Cl)c1sc(NC(=O)C2(C(=O)Nc3cc(F)cc(F)c3)CC2)nc1C1CC1 [SSTA-0263, N-(5-((2-chloro-5-(trifluoromethyl)phenyl)carbamoyl)-4-cyclopropylthiazol-2-yl)-N-(3,5-difluorophenyl)cyclopropane-1,1-dicarboxamide] | < 250 nM |
| O=C(Nc1cc(C(F)(F)F)ccc1Cl)c1sc(NC(=O)C2(C(=O)Nc3cc(F)cc(C(F)(F)F)c3)CC2)nc1C1CC1 [SSTA-0264, N-(5-((2-chloro-5-(trifluoromethyl)phenyl)carbamoyl)-4-cyclopropylthiazol-2-yl)-N-(3-fluoro-5-(trifluoromethyl)phenyl)cyclopropane-1,1-dicarboxamide] | < 250 nM |
| N-(5-((2-chloro-5-(trifluoromethyl)phenyl)carbamoyl)-4-methylthiazol-2-yl)-N-(3-fluoro-5-(trifluoromethyl)phenyl)cyclopropane-1,1-dicarboxamide [SSTA-0233] | 250 to 1000 nM |
